Columns and labels:
Format in all cases: functional, cell-based
[1] = test system: HEp-2; experiment: Cytotoxicity against Homo sapiens (human) Hep2 cells after 48 hr by SRB assay; details: HEp-2, 48 h
[2] = test system: IMR-32; experiment: Cytotoxicity against Homo sapiens (human) IMR32 cells after 48 hr by SRB assay; details: IMR-32, 48 h
[3] = test system: OVCAR; experiment: Cytotoxicity against Homo sapiens (human) OVCAR cells after 48 hr by SRB assay
[4] = test system: PC-3; experiment: Cytotoxicity against Homo sapiens (human) PC3 cells after 48 hr by SRB assay; details: PC-3, 48 h

Row | Compound | IC50 [1] | IC50 [2] | IC50 [3] | IC50 [4]
1 | CC(=O)N1N=C(c2ccco2)CC1c1ccc([N+](=O)[O-])cc1 (stereo not given) | 21.8 µM | 35.8 µM | 23 µM | 21.3 µM
2 | COc1ccc(C2CC(c3cccc4ccccc34)=NN2C(C)=O)cc1OC (stereo not given) | 1.03 µM | 1.68 µM | 2.69 µM | 2.01 µM
3 | COc1cc(C2CC(c3cccc4ccccc34)=NN2C(C)=O)cc(OC)c1OC (stereo not given) | 1.01 µM | 1.54 µM | 1.77 µM | 1.09 µM
4 | COc1ccc(C2CC(c3cccc4ccccc34)=NN2C(C)=O)cc1 (stereo not given) | 3.73 µM | 4.99 µM | 6.71 µM | 4.93 µM
5 | CC(=O)N1N=C(c2cccc([N+](=O)[O-])c2)CC1c1cccc(Cl)c1Cl (stereo not given) | 27.6 µM | 25.3 µM | 19.7 µM | 18.2 µM
6 | COc1ccc(OC)c(C2CC(c3ccco3)=NN2C(C)=O)c1 (stereo not given) | 13.3 µM | 11.8 µM | 11 µM | 11.2 µM
7 | CC(=O)N1N=C(c2ccccc2)CC1c1ccc2c(c1)OCO2 (stereo not given) | 6.65 µM | 7.64 µM | 8.73 µM | 8.89 µM
8 | CC(=O)N1N=C(c2cccc3ccccc23)CC1c1cccc(Cl)c1Cl (stereo not given) | 16.8 µM | 22.1 µM | 19.1 µM | 20.1 µM
9 | CC(=O)N1N=C(c2ccc(Br)cc2)CC1c1ccccc1 (stereo not given) | 27.8 µM | 22.4 µM | 21.2 µM | 29.9 µM
10 | COc1ccc(C2CC(c3ccc(Br)cc3)=NN2C(C)=O)cc1OC (stereo not given) | 8.87 µM | 5.54 µM | 5.59 µM | 7.76 µM
11 | CC(=O)N1N=C(c2ccccc2)CC1c1ccc(N(C)C)cc1 (stereo not given) | 14.6 µM | 9.66 µM | 12 µM | 7.88 µM
12 | COc1cc(C2CC(c3ccco3)=NN2C(C)=O)cc(OC)c1OC (stereo not given) | 21.3 µM | 9.87 µM | 10.9 µM | 9.65 µM
13 | CC(=O)N1N=C(c2ccc3ccccc3c2)CC1c1cccc(Br)c1 (stereo not given) | 8.78 µM | 9.87 µM | 10.8 µM | 10.9 µM
14 | CC(=O)N1N=C(c2ccco2)CC1c1cccc(O)c1 (stereo not given) | 10 µM | 11.8 µM | 13.2 µM | 16.5 µM
15 | CC(=O)N1N=C(c2cccc3ccccc23)CC1c1ccccc1[N+](=O)[O-] (stereo not given) | 3.96 µM | 3.98 µM | 4.32 µM | 3.54 µM
16 | COc1ccc(C2CC(c3ccco3)=NN2C(C)=O)cc1 (stereo not given) | 15.6 µM | 14.5 µM | 14.3 µM | 15.5 µM
17 | COc1ccc(OC)c(C2CC(c3ccc4ccccc4c3)=NN2C(C)=O)c1 (stereo not given) | 1.09 µM | 1.32 µM | 2.33 µM | 1.66 µM
18 | COc1ccc(C2CC(c3ccc(Br)cc3)=NN2C(C)=O)cc1 (stereo not given) | 17.9 µM | 15.7 µM | 16.9 µM | 17.8 µM
19 | CC(=O)N1N=C(c2cccc3ccccc23)CC1c1ccco1 (stereo not given) | 17 µM | 8 µM | 13 µM | 18 µM
20 | CC(=O)N1N=C(c2ccccc2)CC1c1ccccc1 (stereo not given) | 11.8 µM | 11.9 µM | 23.5 µM | 8.69 µM
21 | CC(=O)N1CC(c2ccc3c(c2)OCO3)C(c2ccc3ccccc3c2)=N1 (stereo not given) | 1.01 µM | 1.56 µM | 3.45 µM | 1.97 µM
22 | COc1cc(C2CC(c3ccc4ccccc4c3)=NN2C(C)=O)cc(OC)c1OC (stereo not given) | 0.53 µM | 0.67 µM | 0.64 µM | 0.57 µM
23 | COc1ccc(C2CC(c3cccc4ccccc34)=NN2C(C)=O)c(OC)c1OC (stereo not given) | 1.29 µM | 1.79 µM | 1.98 µM | 1.22 µM
24 | COc1cc(C2CC(c3ccco3)=NN2C(C)=O)ccc1O (stereo not given) | 10.1 µM | 23.3 µM | 11.3 µM | 12.9 µM
25 | COc1cc(OC)c(C2CC(c3ccco3)=NN2C(C)=O)cc1OC (stereo not given) | 6.69 µM | 7.76 µM | 6.76 µM | 8.98 µM
26 | CC(=O)N1N=C(c2ccco2)CC1c1ccc(C)cc1 (stereo not given) | 19.3 µM | 29.1 µM | 11.2 µM | 21.2 µM
27 | COc1cc(C2CC(c3cccc4ccccc34)=NN2C(C)=O)ccc1O (stereo not given) | 1.13 µM | 1.78 µM | 2.73 µM | 2.13 µM
28 | CC(=O)N1N=C(c2ccc3ccccc3c2)CC1c1ccco1 (stereo not given) | 19 µM | 11 µM | 18 µM | 23 µM
29 | CC(=O)N1N=C(c2ccco2)CC1c1ccc(N(C)C)cc1 (stereo not given) | 16 µM | 16.1 µM | 14.6 µM | 16.7 µM
30 | CC(=O)N1N=C(c2ccc(Br)cc2)CC1c1ccc2c(c1)OCO2 (stereo not given) | 8.72 µM | 9.89 µM | 11.2 µM | 11 µM
